The target of this test is T1, Tyrosine-protein phosphatase non-receptor type 1 (Homo sapiens, UniProt P18031).
T1 sequence (P18031 whole entry): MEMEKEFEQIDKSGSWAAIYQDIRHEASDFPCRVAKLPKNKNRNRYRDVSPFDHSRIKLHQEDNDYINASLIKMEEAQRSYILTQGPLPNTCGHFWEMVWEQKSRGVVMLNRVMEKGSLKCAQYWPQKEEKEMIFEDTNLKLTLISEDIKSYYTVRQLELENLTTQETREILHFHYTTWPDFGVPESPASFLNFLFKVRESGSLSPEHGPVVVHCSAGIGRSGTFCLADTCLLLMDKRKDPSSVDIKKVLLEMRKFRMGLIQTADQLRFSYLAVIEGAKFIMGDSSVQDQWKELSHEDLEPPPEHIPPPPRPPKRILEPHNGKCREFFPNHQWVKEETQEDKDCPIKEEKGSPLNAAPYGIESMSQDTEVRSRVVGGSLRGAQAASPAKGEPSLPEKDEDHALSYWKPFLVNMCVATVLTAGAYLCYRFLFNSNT
The test can be described thus: Inhibition of protein tyrosine phosphatase 1B.

Results on five compounds are retold here after ChEMBL document CHEMBL1287683, “Highly brominated metabolites from marine red alga Laurencia similis inhibit protein tyrosine phosphatase 1B” (Bioorg Med Chem Lett, 2010).

For orientation: IC50 means the point on the concentration scale where inhibition reaches its midpoint.

Take `BrCc1cc(Br)c2cc(NBr)c(Br)c(Br)c2c1`: the IC50 is 185 µM. In the case of `BrCc1cc(Br)c2cc(NBr)c(Br)cc2c1Br`, the IC50 is 118 µM. Compared with the last compound, the IC50 is about 1.6-fold lower. For `COc1cc(C(=O)c2c(Br)c(Br)c(OC)c(OC)c2Br)c(Br)c(Br)c1OC` the value was 3.82 µM; for `BrCc1cc2cc(Br)c(NBr)cc2c(Br)c1Br`, 127 µM; for `Cc1cc(C)c(Oc2cc(Br)cc(Br)c2Br)c(Br)c1`, 5.78 µM.
